Measured values published in patent US10954221B2, “GLP-1R agonists and uses thereof” (QILU REGOR THERAPEUTICS INC., priority 2019, dated 2021).

Legend:
GLP1R [1] = biological target: T1, GLP1R (Homo sapiens, UniProt P43220); experiment: β-Arrestin-mediated GLP1R internalization assay (PathHunter U2OS cells); assay type: cell-based; parameters: host or cells: PathHunter engineered U2OS cells; details: averaged Bmax where applicable, Percentage of Control GLP-1 (7-37), top 10 μM, 180 min
Excerpt: A similar assay can also be used to assess the extent of signal attenuation due to GLP-1R internalization (the Internalization Assay). In this assay, activated GLP1R Internalization cells were engineered to co-express an untagged GLP1R, Enzyme Acceptor (EA) tagged β-Arrestin, and a ProLink™ (PK) tag localized to the endosomes. Activation of the GLP1R induces β-Arrestin recruitment, which leads to internalization of the Receptor/Arrestin-EA complex in PK-tagged endosomes. This forces complementation of the two β-galactosidase enzyme fragments (EA and PK) to form a functional enzyme that hydrolyzes substrate to generate a chemiluminescent signal.
Frozen cells were quickly thawed and 10 mL of cell plating medium (provided by the kit) was added to thawed cells. Cells were stored in a 37° C. incubator and kept for approximately 48 hours until ready for the assay.
Reference and test compounds were dissolved in 100% DMSO. […] 5 μL of this solution was added to 20 μL cell medium in assay plate for a final top concentration of 10 μM. Plates were incubated at 37° C. for 180 min.
Following 180 min incubation, detection reagents were made up by combining 1 part Galacton Star Substrate with 5 parts Emerald II™ Solution, and 19 parts of PathHunter Cell Assay Buffer, respectively. 12.5 μL detection reagent was added to each well. The plates were then incubated at room temperature for 60 min. Plates were then read on Envision for 0.1 sec/well.
EC50 determinations were made from agonist dose-response curves analyzed with a curve fitting program using a 4-parameter logistic dose response equation.
Target sequence in this assay (P43220 24-463): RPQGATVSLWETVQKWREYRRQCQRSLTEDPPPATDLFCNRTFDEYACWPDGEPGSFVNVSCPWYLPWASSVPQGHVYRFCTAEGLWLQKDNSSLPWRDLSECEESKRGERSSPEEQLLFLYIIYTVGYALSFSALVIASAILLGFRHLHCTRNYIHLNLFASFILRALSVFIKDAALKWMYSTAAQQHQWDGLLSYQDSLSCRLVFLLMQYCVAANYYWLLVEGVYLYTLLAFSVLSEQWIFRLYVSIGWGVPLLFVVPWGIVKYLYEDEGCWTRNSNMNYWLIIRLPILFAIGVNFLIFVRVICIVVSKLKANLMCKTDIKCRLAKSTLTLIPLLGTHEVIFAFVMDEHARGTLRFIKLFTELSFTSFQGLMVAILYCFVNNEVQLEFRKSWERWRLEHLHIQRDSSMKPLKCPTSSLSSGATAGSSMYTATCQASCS
Target sequence in this assay (P32121 whole entry partner, the tested form may be a part): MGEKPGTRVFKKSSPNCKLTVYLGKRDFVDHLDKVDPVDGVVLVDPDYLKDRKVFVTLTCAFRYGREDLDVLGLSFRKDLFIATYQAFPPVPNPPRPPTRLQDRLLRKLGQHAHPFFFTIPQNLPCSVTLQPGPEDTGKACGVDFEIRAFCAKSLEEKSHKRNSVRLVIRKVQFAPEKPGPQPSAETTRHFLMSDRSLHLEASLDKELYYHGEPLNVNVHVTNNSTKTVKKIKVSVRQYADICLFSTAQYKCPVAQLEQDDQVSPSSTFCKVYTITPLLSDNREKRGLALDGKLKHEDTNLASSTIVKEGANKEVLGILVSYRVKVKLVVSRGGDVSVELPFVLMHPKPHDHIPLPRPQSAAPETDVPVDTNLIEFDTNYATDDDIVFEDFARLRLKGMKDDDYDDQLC

GLP1R [2] = biological target: T1, GLP1R; experiment: GLP1R cAMP assay (HTRF), HEK293/GLP-1R/CRE/Luc, Clone 4
Target sequence in this assay (P43220 24-463): as the sequence (P43220 24-463) above

GLP1R [3] = biological target: T1, GLP1R; parameters: Emax: dose or concentration left out as unconfirmed; details: for Emax: CHO-K1, […], read-out: β-arrestin recruitment Bmax (%)
Target sequence in this assay (P43220 24-463): as above
Target sequence in this assay (P32121 whole entry partner, the tested form may be a part): as the sequence (P32121 whole entry partner, the tested form may be a part) above
Experimental: Frozen cells were quickly thawed and 10 mL of cell plating medium (provided by the kit) was added to thawed cells. Cells were stored in a 37° C. incubator under 5% CO2 and kept for approximately 48 hours until ready to run the assay.
Reference and test compounds were dissolved in 100% DMSO. […] 5 μL of this solution was added to 20 μL cell medium in assay plate for a final top concentration of 10 μM. Plates were then incubated at 37° C. under 5% CO2 for 90 min.
Following 90 min incubation, detection reagents were made up by combining 1 part Galacton Star Substrate with 5 parts Emerald II™ Solution, and 19 parts of PathHunter Cell Assay Buffer, respectively. 12.5 μl detection reagent was added to each well. The plates were then incubated at room temperature in dark for 60 min. Plates were then read on Envision for 0.1 sec/well.
Cells were plated at a density of 1000 or 2000 cells/20 μL/well. Frozen cells were quickly thawed and added to 10 mL of cell plating medium. Cells were stored in a 37 degree incubator under 5% CO2 and left for approximately 48 hours until ready to run the assay
Prepare 10× concentration of an agonist in serum free DMEM, and add all solutions into the compound plate. 2.5 μL of this solution was added to 20 μL cell medium in assay plate for a final top concentration of 10 μM. Plates were incubated at 37° C. under 5% CO2 for 30 min. An additional 2.5 μL of Buffer was added to the entire plate for agonist mode and incubated at 37° C. for another 90 min.
Following 90 min incubation, detection reagents were made up as described. 12.5 μL was added to all wells. The plates were then incubated at room temperature in dark for 60 min. Plates were then read on Envision for 0.1 sec/well.
Data analysis: GraphPad Prism 6 was used for establishment of progression curve. EC50s or IC50s were determined by 4-parameter logistic dose response equation.

Structure (SMILES)	β-arrestin internalization Bmax (POC) (GLP1R [1])	EC50 (GLP1R [2])	β-arrestin recruitment Bmax (%) (GLP1R [3]; partial maximum relative effect at the highest concentration tested (top 10 μM), relative to Bmax of GLP-1 (7-37), PathHunter CHO-K1 GLP1R β-Arrestin cells)	Emax (GLP1R [3])
O=C(O)c1ccc2nc(Cc3ccc(-c4cccc(OCc5ccc(Cl)cc5F)n4)c(F)c3)n(C[C@@H]3CCO3)c2c1 [Compound 74, (S)-2-(4-(6-((4-chloro-2-fluorobenzyl)oxy)pyridin-2-yl)-3-fluorobenzyl)-1-(oxetan-2-ylmethyl)-1H-benzo[d]imidazole-6-carboxylic acid]	17.0 POC	< 15 nM	32.1%	–
N#Cc1ccc(COc2cccc(-c3ccc(Cc4nc5ccc(C(=O)O)cc5n4C[C@@H]4CCO4)cc3F)n2)c(F)c1 [Compound 75, (S)-2-(4-(6-(4-cyano-2-fluorobenzyloxy)pyridin-2-yl)-3-fluorobenzyl)-1-(oxetan-2-ylmethyl)-1H-benzo[d]imidazole-6-carboxylic acid]	20.8 ± 10.2 POC	< 15 nM	–	30.4 ± 1.15%
O=C(O)c1ccc2nc(Cc3ccc(-c4cccc(OCc5ccc(Cl)cc5F)c4)c(F)c3)n(C[C@@H]3CCO3)c2c1 [Compound 76, (S)-2-((3′-((4-chloro-2-fluorobenzyl)oxy)-2-fluoro-[1,1′-biphenyl]-4-yl)methyl)-1-(oxetan-2-ylmethyl)-1H-benzo[d]imidazole-6-carboxylic acid]	21.6 POC	< 15 nM	–	25.1%
O=C(O)c1ccc2nc(Cc3ccc(-c4nc(OCc5ccc(Cl)cc5F)c(F)cc4F)c(F)c3)n(C[C@@H]3CCO3)c2c1 [Compound 77, (S)-2-(4-(6-((4-chloro-2-fluorobenzyl)oxy)-3,5-difluoropyridin-2-yl)-3-fluorobenzyl)-1-(oxetan-2-ylmethyl)-1H-benzo[d]imidazole-6-carboxylic acid]	22.5 POC	< 15 nM	–	39.4%
O=C(O)c1ccc2nc(Cc3ccc(-c4ccc(F)c(OCc5ccc(Cl)cc5F)c4)c(F)c3)n(C[C@@H]3CCO3)c2c1 [Compound 78, (S)-2-((3′-((4-chloro-2-fluorobenzyl)oxy)-2,4′-difluoro-[1,1′-biphenyl]-4-yl)methyl)-1-(oxetan-2-ylmethyl)-1H-benzo[d]imidazole-6-carboxylic acid]	7.49 POC	< 15 nM	–	22.7%
O=C(O)c1ccc2nc(Cc3ccc(-c4cc(OCc5ccc(Cl)cc5F)ccc4F)c(F)c3)n(C[C@@H]3CCO3)c2c1 [Compound 79, (S)-2-((5′-((4-chloro-2-fluorobenzyl)oxy)-2,2′-difluoro-[1,1′-biphenyl]-4-yl)methyl)-1-(oxetan-2-ylmethyl)-1H-benzo[d]imidazole-6-carboxylic acid]	9.25 POC	15 to 150 nM	–	19.7%
O=C(O)c1ccc2nc(Cc3ccc(-c4ccnc(OCc5ccc(Cl)cc5F)n4)c(F)c3)n(C[C@@H]3CCO3)c2c1 [Compound 80, (S)-2-(4-(2-((4-chloro-2-fluorobenzyl)oxy)pyrimidin-4-yl)-3-fluorobenzyl)-1-(oxetan-2-ylmethyl)-1H-benzo[d]imidazole-6-carboxylic acid]	21.2 POC	< 15 nM	–	31.6%
O=C(O)c1ccc2nc(Cc3ccc(-c4ncc(F)c(OCc5ccc(Cl)cc5F)n4)c(F)c3)n(C[C@@H]3CCO3)c2c1 [Compound 81, (S)-2-(4-(4-(4-chloro-2-fluorobenzyloxy)-5-fluoropyrimidin-2-yl)-3-fluorobenzyl)-1-(oxetan-2-ylmethyl)-1H-benzo[d]imidazole-6-carboxylic acid]	30.6 POC	< 15 nM	–	37.2%
O=C(O)c1ccc2nc(CN3CC=C(c4csc(OCc5ccc(Cl)cc5F)n4)CC3)n(C[C@@H]3CCO3)c2c1 [Compound 247, (S)-2-((4-(2-((4-chloro-2-fluorobenzyl)oxy)thiazol-4-yl)-3,6-dihydropyridin-1(2H)-yl)methyl)-1-(oxetan-2-ylmethyl)-1H-benzo[d]imidazole-6-carboxylic acid]	26.6 POC	< 15 nM	–	–
